Test system: patients with moderate to severe chronic low back pain
Assay: Opioid-associated adverse events (constipation, nausea, vomiting, dizziness, somnolence, pruritus), low back pain study
[1] = event table, all occurrences, through the treatment period, ITT
[2] = event table, % of total number of events
[3] = through the treatment period, ITT population

## COc1ccc2c3c1O[C@H]1C(=O)CC[C@@]4(O)[C@@H](C2)N(C)CC[C@]314 [OXY QID, oxycodone]
[1]
  Number of events, all opioid-associated adverse events: 2549
  Number of events, all opioid-associated adverse events (by severity table): 2549
  Number of events, constipation: 576
  Number of events, constipation, mild: 430
  Number of events, constipation, moderate: 119
  Number of events, constipation, severe: 27
  Number of events, dizziness: 390
  Number of events, dizziness, mild: 314
  Number of events, dizziness, moderate: 63
  Number of events, dizziness, severe: 13
  Number of events, gastrointestinal disorders: 1143
  Number of events, gastrointestinal disorders (by severity table): 1143
  Number of events, nausea: 459
  Number of events, nausea, mild: 336
  Number of events, nausea, moderate: 93
  Number of events, nausea, severe: 30
  Number of events, nervous system disorders: 952
  Number of events, nervous system disorders (by severity table): 952
  Number of events, pruritus: 454
  Number of events, pruritus, moderate: 93
  Number of events, pruritus, severe: 13
  Number of events, skin and subcutaneous tissue disorders: 454
  Number of events, skin and subcutaneous tissue disorders (by severity table): 454
  Number of events, somnolence: 562
  Number of events, somnolence, mild: 390
  Number of events, somnolence, moderate: 133
  Number of events, somnolence, severe: 39
  Number of events, vomiting: 108
  Number of events, vomiting, mild: 61
  Number of events, vomiting, moderate: 26
  Number of events, vomiting, severe: 21
[2]
  % of all events, constipation, mild: 16.9%
  % of all events, constipation, moderate: 4.7%
  % of all events, constipation, severe: 1.1%
  % of all events, dizziness: 15.3%
  % of all events, dizziness, mild: 12.3%
  % of all events, dizziness, moderate: 2.5%
  % of all events, dizziness, severe: 0.5%
  % of all events, gastrointestinal disorders: 44.8%
  % of all events, gastrointestinal disorders (by severity table): 44.8%
  % of all events, nausea: 18.0%
  % of all events, nausea, mild: 13.2%
  % of all events, nausea, moderate: 3.6%
  % of all events, nausea, severe: 1.2%
  % of all events, nervous system disorders: 37.3%
  % of all events, nervous system disorders (by severity table): 37.3%
  % of all events, pruritus: 17.8%
  % of all events, pruritus, mild: 13.7%
  % of all events, pruritus, moderate: 3.6%
  % of all events, pruritus, severe: 0.5%
  % of all events, skin and subcutaneous tissue disorders: 17.8%
  % of all events, skin and subcutaneous tissue disorders (by severity table): 17.8%
  % of all events, somnolence: 22.0%
  % of all events, somnolence, mild: 15.3%
  % of all events, somnolence, moderate: 5.2%
  % of all events, somnolence, severe: 1.5%
  % of all events, vomiting: 4.2%
  % of all events, vomiting, mild: 2.4%
  % of all events, vomiting, moderate: 1.0%
  % of all events, vomiting, severe: 0.8%
[3]
  % of patients reporting constipation: 59.2%
  % of patients reporting constipation, maximum severity mild: 26.7%
  % of patients reporting constipation, maximum severity moderate: 20.9%
  % of patients reporting constipation, maximum severity severe: 11.7%
  % of patients reporting dizziness: 51.9%
  % of patients reporting dizziness, maximum severity mild: 29.6%
  % of patients reporting dizziness, maximum severity moderate: 16.0%
  % of patients reporting dizziness, maximum severity severe: 6.3%
  % of patients reporting gastrointestinal disorders: 77.7%
  % of patients reporting gastrointestinal disorders (by maximum severity table): 77.7%
  % of patients reporting nausea: 58.3%
  % of patients reporting nausea, maximum severity moderate: 22.3%
  % of patients reporting nausea, maximum severity severe: 11.7%
  % of patients reporting nervous system disorders: 79.1%
  % of patients reporting nervous system disorders (by maximum severity table): 79.1%
  % of patients reporting pruritus, maximum severity mild: 28.6%
  % of patients reporting pruritus, maximum severity moderate: 25.2%
  % of patients reporting pruritus, maximum severity severe: 6.3%
  % of patients reporting somnolence: 68.0%
  % of patients reporting somnolence, maximum severity mild: 23.3%
  % of patients reporting somnolence, maximum severity moderate: 29.1%
  % of patients reporting somnolence, maximum severity severe: 15.5%
  % of patients reporting vomiting, maximum severity mild: 9.7%
  % of patients reporting vomiting, maximum severity moderate: 7.8%
  % of patients reporting vomiting, maximum severity severe: 6.8%
  Number of patients reporting constipation: 122
  Number of patients reporting constipation, maximum severity mild: 55
  Number of patients reporting constipation, maximum severity moderate: 43
  Number of patients reporting constipation, maximum severity severe: 24
  Number of patients reporting dizziness: 107
  Number of patients reporting dizziness, maximum severity mild: 61
  Number of patients reporting dizziness, maximum severity moderate: 33
  Number of patients reporting dizziness, maximum severity severe: 13
  Number of patients reporting gastrointestinal disorders: 160
  Number of patients reporting gastrointestinal disorders (by maximum severity table): 160
  Number of patients reporting nausea: 120
  Number of patients reporting nausea, maximum severity mild: 50
  Number of patients reporting nausea, maximum severity moderate: 46
  Number of patients reporting nausea, maximum severity severe: 24
  Number of patients reporting nervous system disorders: 163
  Number of patients reporting nervous system disorders (by maximum severity table): 163
  Number of patients reporting pruritus: 124
  Number of patients reporting pruritus, maximum severity mild: 59
  Number of patients reporting pruritus, maximum severity moderate: 52
  Number of patients reporting pruritus, maximum severity severe: 13
  Number of patients reporting skin and subcutaneous tissue disorders: 124
  Number of patients reporting skin and subcutaneous tissue disorders (by maximum severity table): 124
  Number of patients reporting somnolence: 140
  Number of patients reporting somnolence, maximum severity mild: 48
  Number of patients reporting somnolence, maximum severity moderate: 60
  Number of patients reporting somnolence, maximum severity severe: 32
  Number of patients reporting vomiting: 50
  Number of patients reporting vomiting, maximum severity mild: 20
  Number of patients reporting vomiting, maximum severity moderate: 16
  Number of patients reporting vomiting, maximum severity severe: 14
